Numbered stars: 1 amine (or outer) side, 2 acyl side, 3 side chain; on linkers, the order of the positions; unused ones are H or OH. Bridge positions count the residues as written; N and C are the ends. Square brackets hold non-standard residues; d marks the D form. Side chains are listed from the residue outwards. Peptide text beside a SMILES is read from it. I, II: the chains in the order shown. * marks the point of attachment. C18 diacid = O=C(O)CCCCCCCCCCCCCCCCC(=O)*; γGlu = O=C(O)[C@H](CCC(=O)[*:2])N[*:1]; Ac4c = NC1(C(=O)O)CCC1; AEEA = NCCOCCOCC(=O)O; Aib = CC(C)(N)C(=O)O
Target: T1, human GLP-1 receptor (Homo sapiens, UniProt P43220)
T1 construct: expressed in transfected cells; host or cells: BHK cells (parent BHKTS13), clone FCW467-12A/KZ10-1, with CRE luciferase
Experiment: GLP-1 receptor binding, 125I-GLP-1 displacement SPA on isolated membranes
Conditions: displacement of 125I-GLP-1 from membranes; read-out: IC50 GLP-1R
Method in brief: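 Test derivatives, serially diluted, competed with 125I-GLP-1(7-36)NH2 for the human GLP-1 receptor on BHK membranes, read by WGA-bead scintillation proximity after 2 h at 30°C, pH 7.4 HEPES/EGTA/MgCl2 buffer. Final serum albumin was either ≤0.001% or 2.0%; IC50 from non-linear fit.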

T1 sequence (P43220 24-463): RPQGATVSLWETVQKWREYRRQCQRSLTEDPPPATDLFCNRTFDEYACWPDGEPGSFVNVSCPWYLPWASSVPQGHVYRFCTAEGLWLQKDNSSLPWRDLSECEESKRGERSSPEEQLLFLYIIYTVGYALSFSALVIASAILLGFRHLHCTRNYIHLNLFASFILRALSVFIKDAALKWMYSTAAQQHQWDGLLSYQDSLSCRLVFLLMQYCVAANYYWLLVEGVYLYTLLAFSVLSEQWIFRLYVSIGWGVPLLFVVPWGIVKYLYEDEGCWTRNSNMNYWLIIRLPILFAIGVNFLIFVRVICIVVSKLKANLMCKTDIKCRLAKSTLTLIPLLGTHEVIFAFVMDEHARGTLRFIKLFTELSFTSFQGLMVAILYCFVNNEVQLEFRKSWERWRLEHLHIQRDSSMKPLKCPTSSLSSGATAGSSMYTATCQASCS

Point of comparison: CC(C)C[C@H](NC(=O)[C@H](CC(C)C)NC(=O)[C@H](Cc1c[nH]c2ccccc12)NC(=O)[C@H](CCC(N)=O)NC(=O)[C@@H](NC(=O)[C@H](Cc1ccccc1)NC(=O)[C@H](CCC(=O)O)NC(=O)[C@H](CCCNC(=N)N)NC(=O)[C@H](C)NC(=O)[C@H](CCCNC(=N)N)NC(=O)[C@H](CCCNC(=N)N)NC(=O)[C@H](CO)NC(=O)[C@H](CC(=O)O)NC(=O)[C@H](CC(C)C)NC(=O)[C@H](Cc1ccc(O)cc1)NC(=O)[C@H](CCCCN)NC(=O)[C@H](CO)NC(=O)[C@H](CC(C)C)NC(=O)[C@H](CC(=O)O)NC(=O)[C@H](CO)NC(=O)[C@@H](NC(=O)[C@H](Cc1ccccc1)NC(=O)[C@@H](NC(=O)CNC(=O)[C@H](CCC(N)=O)NC(=O)C(C)(C)NC(=O)[C@@H](N)Cc1c[nH]cn1)[C@@H](C)O)[C@@H](C)O)C(C)C)C(=O)N[C@@H](CC(N)=O)C(=O)N[C@@H](CCCCNC(=O)CC[C@H](NC(=O)CC[C@H](NC(=O)COCCOCCNC(=O)COCCOCCNC(=O)CC[C@H](NC(=O)CCCCCCCCCCCCCCCCC(=O)O)C(=O)O)C(=O)O)C(=O)O)C(N)=O [Example 12, N^ε29-[(4S)-4-carboxy-4-[[(4S)-4-carboxy-4-[[2-[2-[2-[[2-[2-[2-[[(4S)-4-carboxy-4-(17-carboxyheptadecanoylamino)butanoyl]amino]ethoxy]ethoxy]acetyl]amino]ethoxy]ethoxy]acetyl]amino]butanoyl]amino]butanoyl]-[Aib2,Leu10,Arg20,Glu21,Leu27,Lys29]-Glucagon amide] (H-H[Aib]QGTFTSDLSKYLDSRRAREFVQWLLNK([γGlu-γGlu-AEEA-AEEA-γGlu-C18 diacid])-NH2), IC50 0.5 nM. Against it:
- CC(C)C[C@H](NC(=O)[C@H](CC(C)C)NC(=O)[C@H](Cc1c[nH]c2ccccc12)NC(=O)[C@H](CCC(N)=O)NC(=O)[C@@H](NC(=O)[C@H](Cc1ccccc1)NC(=O)[C@H](CCC(=O)O)NC(=O)[C@H](CCC(N)=O)NC(=O)[C@H](C)NC(=O)[C@H](C)NC(=O)[C@H](CCCCN)NC(=O)[C@H](CO)NC(=O)[C@H](CC(=O)O)NC(=O)[C@H](CC(C)C)NC(=O)[C@H](Cc1ccc(O)cc1)NC(=O)[C@H](CCCCN)NC(=O)[C@H](CO)NC(=O)[C@H](CC(C)C)NC(=O)[C@H](CC(=O)O)NC(=O)[C@H](CO)NC(=O)[C@@H](NC(=O)[C@H](Cc1ccccc1)NC(=O)[C@@H](NC(=O)CNC(=O)[C@H](CCC(N)=O)NC(=O)C(C)(C)NC(=O)[C@@H](N)Cc1c[nH]cn1)[C@@H](C)O)[C@@H](C)O)C(C)C)C(=O)N[C@@H](CC(N)=O)C(=O)N[C@@H](CCCCNC(=O)CC[C@H](NC(=O)CC[C@H](NC(=O)COCCOCCNC(=O)COCCOCCNC(=O)CC[C@H](NC(=O)CCCCCCCCCCCCCCCCC(=O)O)C(=O)O)C(=O)O)C(=O)O)C(N)=O [Example 8, N^ε29-[(4S)-4-carboxy-4-[[(4S)-4-carboxy-4-[[2-[2-[2-[[2-[2-[2-[[(4S)-4-carboxy-4-(17-carboxyheptadecanoylamino)butanoyl]amino]ethoxy]ethoxy]acetyl]amino]ethoxy]ethoxy]acetyl]amino]butanoyl]amino]butanoyl]-[Aib2,Leu10,Lys17,Ala18,Glu21,Leu27,Lys29]-Glucagon amide] (H-H[Aib]QGTFTSDLSKYLDSKAAQEFVQWLLNK([γGlu-γGlu-AEEA-AEEA-γGlu-C18 diacid])-NH2; N-terminus assumed) — 2.2-fold higher, 1.1 nM
- CC(C)C[C@H](NC(=O)[C@H](Cc1ccc(O)cc1)NC(=O)[C@H](CCCCN)NC(=O)[C@H](CO)NC(=O)[C@H](CC(C)C)NC(=O)[C@H](CC(=O)O)NC(=O)[C@H](CO)NC(=O)[C@@H](NC(=O)[C@H](Cc1ccccc1)NC(=O)[C@@H](NC(=O)CNC(=O)[C@H](CCC(N)=O)NC(=O)C(C)(C)NC(=O)[C@@H](N)Cc1c[nH]cn1)[C@@H](C)O)[C@@H](C)O)C(=O)N[C@@H](CC(=O)O)C(=O)N[C@@H](CCCCNC(=O)CC[C@H](NC(=O)CC[C@H](NC(=O)COCCOCCNC(=O)COCCOCCNC(=O)CC[C@H](NC(=O)CCCCCCCCCCCCCCCCC(=O)O)C(=O)O)C(=O)O)C(=O)O)C(=O)N[C@@H](CCCNC(=N)N)C(=O)N[C@@H](CCCNC(=N)N)C(=O)N[C@@H](C)C(=O)N[C@@H](CCCNC(=N)N)C(=O)N[C@@H](CCC(=O)O)C(=O)N[C@@H](Cc1ccccc1)C(=O)N[C@H](C(=O)N[C@@H](CCC(N)=O)C(=O)N[C@@H](Cc1c[nH]c2ccccc12)C(=O)N[C@@H](CC(C)C)C(=O)N[C@@H](CC(C)C)C(=O)N[C@@H](CC(N)=O)C(=O)N[C@H](C(N)=O)[C@@H](C)O)C(C)C [Example 10, N^ε16-[(4S)-4-carboxy-4-[[(4S)-4-carboxy-4-[[2-[2-[2-[[2-[2-[2-[[(4S)-4-carboxy-4-(17-carboxyheptadecanoylamino)butanoyl]amino]ethoxy]ethoxy]acetyl]amino]ethoxy]ethoxy]acetyl]amino]butanoyl]amino]butanoyl]-[Aib2,Leu10,Lys16,Arg20,Glu21,Leu27]-Glucagon amide] (H-H[Aib]QGTFTSDLSKYLDK([γGlu-γGlu-AEEA-AEEA-γGlu-C18 diacid])RRAREFVQWLLNT-NH2; N-terminus assumed) — the same, 0.5 nM
- CC(C)C[C@H](NC(=O)[C@H](Cc1ccc(O)cc1)NC(=O)[C@H](CCCCN)NC(=O)[C@H](CO)NC(=O)[C@H](CC(C)C)NC(=O)[C@H](CC(=O)O)NC(=O)[C@H](CO)NC(=O)[C@@H](NC(=O)[C@H](Cc1ccccc1)NC(=O)[C@@H](NC(=O)CNC(=O)[C@H](CCC(N)=O)NC(=O)C1(NC(=O)[C@@H](N)Cc2c[nH]cn2)CCC1)[C@@H](C)O)[C@@H](C)O)C(=O)N[C@@H](CCC(=O)O)C(=O)N[C@@H](CCC(=O)O)C(=O)N[C@@H](CCCNC(=N)N)C(=O)N[C@@H](CCCNC(=N)N)C(=O)N[C@@H](C)C(=O)N[C@@H](CCCNC(=N)N)C(=O)N[C@@H](CC(=O)O)C(=O)N[C@@H](Cc1ccccc1)C(=O)N[C@H](C(=O)N[C@@H](CCC(N)=O)C(=O)N[C@@H](Cc1c[nH]c2ccccc12)C(=O)N[C@@H](CC(C)C)C(=O)N[C@@H](CC(C)C)C(=O)N[C@@H](CCCCNC(=O)CNC(=O)[C@H](CO)NC(=O)[C@H](CCC(=O)O)NC(=O)CNC(=O)[C@H](CO)NC(=O)CC[C@H](NC(=O)CC[C@H](NC(=O)CCCCCCCCCCCCCCCCC(=O)O)C(=O)O)C(=O)O)C(=O)N[C@H](C(N)=O)[C@@H](C)O)C(C)C [Example 16, N^ε28-[2-[[(2S)-2-[[(2S)-4-carboxy-2-[[2-[[(2S)-2-[[(4S)-4-carboxy-4-[[(4S)-4-carboxy-4-(17-carboxyheptadecanoylamino)butanoyl]amino]butanoyl]amino]-3-hydroxypropanoyl]amino]acetyl]amino]butanoyl]amino]-3-hydroxypropanoyl]amino]acetyl]-[Acb2,Leu10,Glu15,Glu16,Arg20,Leu27,Lys28]-Glucagon amide] (I: H-H[Ac4c]QGTFTSDLSKYLEERRARDFVQWLLKT-NH2 / II: {C18 diacid-γGlu-γGlu}-SGESG; amide I:28-II:C; N-terminus assumed) — 2.5-fold lower, 0.2 nM
- CC(C)C[C@H](NC(=O)[C@H](Cc1c[nH]c2ccccc12)NC(=O)[C@H](C)NC(=O)[C@@H](NC(=O)[C@H](Cc1ccccc1)NC(=O)[C@H](CCC(=O)O)NC(=O)[C@H](CCCNC(=N)N)NC(=O)[C@H](C)NC(=O)[C@H](CCCNC(=N)N)NC(=O)[C@H](CCCNC(=N)N)NC(=O)[C@H](CCCCNC(=O)CC[C@H](NC(=O)COCCOCCNC(=O)COCCOCCNC(=O)CC[C@H](NC(=O)CC[C@H](NC(=O)CCCCCCCCCCCCCCCCC(=O)O)C(=O)O)C(=O)O)C(=O)O)NC(=O)[C@H](CC(=O)O)NC(=O)[C@H](CC(C)C)NC(=O)[C@H](Cc1ccc(O)cc1)NC(=O)[C@H](CCCCN)NC(=O)[C@H](CO)NC(=O)[C@H](CC(C)C)NC(=O)[C@H](CC(=O)O)NC(=O)[C@H](CO)NC(=O)[C@@H](NC(=O)[C@H](Cc1ccccc1)NC(=O)[C@@H](NC(=O)CNC(=O)[C@H](CCC(N)=O)NC(=O)C(C)(C)NC(=O)[C@@H](N)Cc1c[nH]cn1)[C@@H](C)O)[C@@H](C)O)C(C)C)C(=O)N[C@@H](CC(C)C)C(=O)N[C@@H](CC(N)=O)C(=O)N[C@H](C(N)=O)[C@@H](C)O [Example 19, N^ε29-[(4S)-4-carboxy-4-[[2-[2-[2-[[2-[2-[2-[[(4S)-4-carboxy-4-[[(4S)-4-carboxy-4-(17-carboxyheptadecanoylamino)butanoyl]amino]butanoyl]amino]ethoxy]ethoxy]acetyl]amino]ethoxy]ethoxy]acetyl]amino]butanoyl]-[Aib2,Leu10,Lys16,Arg20,Glu21,Ala24,Leu27]-Glucagon amide] (H-H[Aib]QGTFTSDLSKYLDK([γGlu-AEEA-AEEA-γGlu-γGlu-C18 diacid])RRAREFVAWLLNT-NH2; N-terminus assumed) — 1.8-fold higher, 0.9 nM
